Values of other authors in patent publication US20090312439A1, “USE OF ROLL COMPACTED PYROGENICALLY PRODUCED SILICON DIOXIDE IN PHARMACEUTICAL COMPOSITIONS” (priority 2006, published 2009).

saturation equilibrium value (pure active constituent in water, reached only after shaking over several days): 1.1 mg/100 ml | release of active constituent on contact with water (sorbate of 5.2 mg on 100 mg pyrogenic silicic acid (AEROSIL 200)): supersaturated solution is formed
Structure (SMILES): C#C[C@]1(O)CC[C@H]2[C@@H]3CCc4cc(O)ccc4[C@H]3CC[C@@]21C [ethinyl oestradiol]
